The values that follow come from US11292799B2, “Substituted azetidine dihydrothienopyrimidines and their use as phosphodiesterase inhibitors” (UNION therapeutics A/S, priority 2017, dated 2022).

A value given as a limit tells only on which side of the number the result lay.

The test system of test [1] is TNF-α release, human peripheral blood mononuclear cells (PBMC). In words: TNF-α release in LPS-stimulated PBMC. The settings on record: lipopolysaccharide stimulation for 18 hours, read-out: TNF-α IC50 range. The class given is cell-based. The method, then: Human peripheral blood mononuclear cells (PBMC) were isolated from buffy coats. The blood is mixed with saline at a ratio of 1:1, and the PBMC were isolated using Lymphoprep Tubes™ (Nycomed, Norway). The PBMC were suspended in RPMI1640 with 0.5% human serum albumin, pen/strep and 2 mM L-glutamine at a concentration of 5×105 c/ml. The cells were pre-incubated for 30 minutes with the test compounds in 96 well tissue culture plates and stimulated for 18 hours with lipopolysaccharide […] (Sigma). TNF-α concentration in the supernatants was measured using homogeneous time-resolved fluorescence resonance (TR-FRET). The assay is quantified by measuring fluorescence at 665 nm (proportional to TNF-α concentration) and 620 nm (control).
Results were expressed as IC50 values calculated from inhibition curves using as positive controls the secretion in LPS stimulated wells and as negative controls the secretion in unstimulated cells.

The target of test [2] is human PDE4D catalytic domain (Homo sapiens (Human), UniProt Q08499). Nature of the test: PDE4 assay (TR-FRET, cAMP cleavage). The class given is biochemical. The settings on record: read-out: PDE4 IC50 range. The method, then: The human PDE4D catalytic domain (UniProt no. Q08499 [[…]]) was incubated with a mixture of non-labelled cAMP (cyclic adenosine monophosphate) and fluorescein amidite (FAM) conjugated cAMP and titrated test or reference compound. Following brief incubation the enzymatic reaction was stopped by addition of binding buffer containing nanoparticles with immobilized trivalent metal ions capable of binding 1) AMP phospho groups and 2) terbium (Tb) donor fluorophores. Subsequent excitation of the Tb donor triggers time-resolved FRET to adjacent FAM acceptor molecules resulting in light emission. In the presence of a PDE4 inhibitor, AMP generation was reduced resulting in a lower fluorescence signal. The cAMP phosphodiester is not bound by the detection system.
Sequence of human PDE4D catalytic domain (Q08499 380-740 limits assumed): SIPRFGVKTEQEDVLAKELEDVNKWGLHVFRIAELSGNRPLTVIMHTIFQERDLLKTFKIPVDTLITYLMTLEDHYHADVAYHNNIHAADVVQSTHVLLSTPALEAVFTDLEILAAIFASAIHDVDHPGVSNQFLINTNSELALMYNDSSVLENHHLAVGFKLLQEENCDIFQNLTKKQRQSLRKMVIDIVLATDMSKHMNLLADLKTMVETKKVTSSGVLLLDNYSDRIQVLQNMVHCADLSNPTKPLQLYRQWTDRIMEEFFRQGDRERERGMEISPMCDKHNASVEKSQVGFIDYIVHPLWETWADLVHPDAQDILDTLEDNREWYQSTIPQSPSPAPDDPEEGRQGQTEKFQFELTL
The results were calculated as the molar concentrations resulting in 50% inhibition of the substrate cleavage compared to controls samples, and are expressed as IC50 (nM).
(In general: Time-resolved FRET reads energy transfer from a long-lived donor to a nearby acceptor.)

Broadly, the IC50 is the concentration needed to halve the response being measured.

Take `[O-][S+]1CCc2nc(N3CC(c4ccccc4)C3)nc(NC3CCOCC3)c21` (stereo in doubt) [Example 1, (R)-2-(3-Phenylazetidin-1-yl)-4-((tetrahydro-2H-pyran-4-yl)amino)-6,7-dihydrothieno[3,2-d]pyrimidine 5-oxide]: the IC50 in test [1] and in test [2] was under 10 nM throughout.
Regarding `[O-][S+]1CCc2nc(N3CC(Oc4ccccc4)C3)nc(NC3CCOCC3)c21` (stereo in doubt) [Example 2, (R)-2-(3-Phenoxyazetidin-1-yl)-4-((tetrahydro-2H-pyran-4-yl)amino)-6,7-dihydrothieno[3,2-d]pyrimidine 5-oxide], the IC50 in test [1] and in test [2] was under 10 nM each time.
Regarding `[O-][S+]1CCc2nc(N3CC(Oc4ccc(F)cc4)C3)nc(NC3CCOCC3)c21` (stereo in doubt) [Example 3, (R)-2-(3-(4-Fluorophenoxy)azetidin-1-yl)-4-((tetrahydro-2H-pyran-4-yl)amino)-6,7-dihydrothieno[3,2-d]pyrimidine 5-oxide], the IC50 in test [1] and in test [2] was under 10 nM throughout.
For the compound `[O-][S+]1CCc2nc(N3CC(c4ccc(F)cc4)C3)nc(NC34CC(C3)C4)c21` (stereo in doubt) [Example 9, (R)-4-(Bicyclo[1.1.1]pentan-1-ylamino)-2-(3-(4-fluorophenyl)azetidin-1-yl)-6,7-dihydrothieno[3,2-d]pyrimidine 5-oxide], the IC50 in test [1] and in test [2] was under 10 nM each time.
On to `[O-][S+]1CCc2nc(N3CC(Oc4ccc(F)cc4)C3)nc(NC34CC(C3)C4)c21` (stereo in doubt) [Example 10, (R)-4-(Bicyclo[1.1.1]pentan-1-ylamino)-2-(3-(4-fluorophenoxy)azetidin-1-yl)-6,7-dihydrothieno[3,2-d]pyrimidine 5-oxide], for which the IC50 in test [1] and in test [2] was under 10 nM throughout.
With `[O-][S+]1CCc2nc(N3CC(c4ccccc4)C3)nc(NC34CC(C3)C4)c21` (stereo in doubt) [Example 11, (R)-4-(Bicyclo[1.1.1]pentan-1-ylamino)-2-(3-phenylazetidin-1-yl)-6,7-dihydrothieno[3,2-d]pyrimidine 5-oxide], the IC50 in test [1] and in test [2] was under 10 nM throughout.
Turning to `[O-][S+]1CCc2nc(N3CC(c4ccccn4)C3)nc(NC34CC(C3)C4)c21` (stereo in doubt) [Example 12, (R)-4-(Bicyclo[1.1.1]pentan-1-ylamino)-2-(3-(pyridin-2-yl)azetidin-1-yl)-6,7-dihydrothieno[3,2-d]pyrimidine 5-oxide], the IC50 in test [1] and in test [2] was 10 to 50 nM each time.
Turning to `[O-][S+]1CCc2nc(N3CC(c4cccc(F)c4)C3)nc(NC34CC(C3)C4)c21` (stereo in doubt) [Example 13, (R)-4-(Bicyclo[1.1.1]pentan-1-ylamino)-2-(3-(3-fluorophenyl)azetidin-1-yl)-6,7-dihydrothieno[3,2-d]pyrimidine 5-oxide], the IC50 in test [1] and in test [2] was under 10 nM each time.
`[O-][S+]1CCc2nc(N3CC(Oc4cccnc4)C3)nc(NC34CC(C3)C4)c21` (stereo in doubt) [Example 14, (R)-4-(Bicyclo[1.1.1]pentan-1-ylamino)-2-(3-(pyridin-3-yloxy)azetidin-1-yl)-6,7-dihydrothieno[3,2-d]pyrimidine 5-oxide]: the half-maximal inhibitory concentration (IC50) in test [1] was 10 to 50 nM; in test [2], under 10 nM.
Turning to `O=S1(=O)CCC(Nc2nc(N3CC(c4ccccc4)C3)nc3c2[S+]([O-])CC3)CC1` (stereo in doubt) [Example 17, (5R)—N-(1,1-Dioxothian-4-yl)-5-oxido-2-(3-phenylazetidin-1-yl)-6,7-dihydrothieno[3,2-d]pyrimidin-4-yl-amine], the IC50 in test [1] was under 10 nM.
Take `O=S1(=O)CC(Nc2nc(N3CC(c4ccccc4)C3)nc3c2[S@+]([O-])CC3)C1` [Example 4, (R)-3-((5-Oxido-2-(3-phenylazetidin-1-yl)-6,7-dihydrothieno[3,2-d]pyrimidin-4-yl)amino)thietane 1,1-dioxide]: in test [1], the IC50 lay within 10 to 50 nM.
`COC(=O)N1CC[C@H](Nc2nc(N3CC(c4ccccc4)C3)nc3c2[S@+]([O-])CC3)C1` [Example 5, Methyl (3S)-3-(((5R)-5-oxido-2-(3-phenylazetidin-1-yl)-6,7-dihydrothieno[3,2-d]pyrimidin-4-yl)amino)pyrrolidine-1-carboxylate]: the IC50 in test [1] and in test [2] was 10 to 50 nM each time.
For the compound `COC(=O)N1CC[C@@H](Nc2nc(N3CC(c4ccccc4)C3)nc3c2[S@+]([O-])CC3)C1` [Example 6, Methyl (3R)-3-(((5R)-5-Oxido-2-(3-phenylazetidin-1-yl)-6,7-dihydrothieno[3,2-d]pyrimidin-4-yl)amino)pyrrolidine-1-carboxylate], the IC50 in test [1] and in test [2] was under 10 nM in each case.
For the compound `COC(=O)N1CCC[C@@H](Nc2nc(N3CC(Oc4ccc(F)cc4)C3)nc3c2[S@+]([O-])CC3)C1` [Example 7, Methyl (3R)-3-(((5R)-2-(3-(4-Fluorophenoxy)azetidin-1-yl)-5-oxido-6,7-dihydrothieno[3,2-d]pyrimidin-4-yl)amino)piperidine-1-carboxylate], the IC50 in test [1] and in test [2] was under 10 nM in each case.
Regarding `COC(=O)N1CCC[C@H](Nc2nc(N3CC(Oc4ccc(F)cc4)C3)nc3c2[S@+]([O-])CC3)C1` [Example 8, Methyl (3S)-3-(((5R)-2-(3-(4-Fluorophenoxy)azetidin-1-yl)-5-oxido-6,7-dihydrothieno[3,2-d]pyrimidin-4-yl)amino)piperidine-1-carboxylate], the IC50 in test [1] and in test [2] was under 10 nM in each case.
Turning to `CC1(Nc2nc(N3CC(c4ccccn4)C3)nc3c2[S@+]([O-])CC3)CCC1` [Example 15, (R)-4-((1-Methylcyclobutyl)amino)-2-(3-(pyridin-2-yl)azetidin-1-yl)-6,7-dihydrothieno[3,2-d]pyrimidine 5-oxide], the half-maximal inhibitory concentration (IC50) in test [1] and in test [2] was under 10 nM throughout.
For the compound `CC1(Nc2nc(N3CC(c4cccnc4)C3)nc3c2[S@+]([O-])CC3)CCC1` [Example 16, (R)-4-((1-Methylcyclobutyl)amino)-2-(3-(pyridin-3-yl)azetidin-1-yl)-6,7-dihydrothieno[3,2-d]pyrimidine 5-oxide], the IC50 in test [1] and in test [2] was 10 to 50 nM each time.
